Measurements from the supplement of paper PMC8671470.

Key:
Conditions in all cases: 72 h
KG-1 [1] = tested on: KG-1
Outline: (§1)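 Each of fifteen myeloid leukaemia cell lines was seeded in RPMI 1640 at a density titrated to its linear growth range. The cells were incubated for 72 h at 37 °C and 5% CO2 with compounds at five tenfold doses from 1 to 10,000 nM, in duplicate. After ATP luminescence was normalised to vehicle and to a positive control at 10 µM, four-parameter log-logistic curves were fitted. These curves gave the IC50.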

HEL [2] = tested on: HEL
Outline: as §1

KCL-22 [3] = tested on: KCL-22
Outline: as §1

ML-2 [4] = tested on: ML-2
Outline: as §1

LAMA-84 [5] = tested on: LAMA-84
Outline: as §1

MV4-11 [6] = tested on: MV4-11
Outline: as §1

HL-60 [7] = tested on: HL-60
Outline: as §1

K-562 [8] = tested on: K-562
Outline: as §1

MOLM-13 [9] = tested on: MOLM-13
Outline: as §1

THP-1 = tested on: THP-1
Outline: as §1

KU-812 = tested on: KU-812
Outline: as §1

Mono-Mac-6 = tested on: Mono-Mac-6
Outline: as §1

SHI-1 [10] = tested on: SHI-1
Outline: as §1

BV-173 [11] = tested on: BV-173
Outline: as §1

NOMO-1 = tested on: NOMO-1
Outline: as §1

KG-1 [12] = assay: cell viability (% survival relative to DMSO control, bortezomib = 0%); higher = less cytotoxic
Outline: (§2)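 Fifteen myeloid leukaemia cell lines (10 AML, 5 CML) were seeded at a density titrated to the linear growth range into 384-well plates pre-printed with compounds at 1, 10, 100, 1000 or 10000 nM in duplicate. Plates were incubated for 72 h at 37 °C with 5% CO2. Viability was then read by CellTiter-Glo luminescence. Each value is percent survival averaged over the duplicates, with vehicle set to 100% and a 10 µM positive control to 0%.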

HEL [13] = assay: as above
Outline: as §2

KCL-22 [14] = assay: as above
Outline: as §2

ML-2 [15] = assay: as above
Outline: as §2

LAMA-84 [16] = assay: as above
Outline: as §2

MV4-11 [17] = assay: as above
Outline: as §2

HL-60 [18] = assay: as above
Outline: as §2

K-562 [19] = assay: as above
Outline: as §2

MOLM-13 [20] = assay: as above
Outline: as §2

SHI-1 [21] = assay: as above
Outline: as §2

BV-173 [22] = assay: as above
Outline: as §2

HL-60 [23] = assay: area under dose-response curve (viability, 1 nM-10 uM) (fraction (0-1)); higher = more sensitive
Outline: (§3)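 Area under the curve, where listed, was derived from four-parameter log-logistic fits with drc and PharmacoGx. These fits used CellTiter-Glo viability from HL-60 cells in RPMI 1640 with 10% FBS, normalised to DMSO wells and wells holding 10 μM proteasome inhibitor. The full library was rescreened on 384-well plates in duplicate at five tenfold concentrations, 1–10,000 nM, with DMSO or 100 nM of one of three metabolic inhibitors, for 72 h at 37 °C, 5% CO2.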

HL-60 [24] = assay: cell viability (% survival relative to DMSO control); higher = less cytotoxic
Outline: as §3

CC1Cc2ccccc2N1NC(=O)c1ccc(Cl)c(S(N)(=O)=O)c1 (configuration not stated) [Indapamide]
Conditions	IC50 (cell viability) [µM]
BV-173 [11]	> 10
HEL [2]	> 10
HL-60 [7]	> 10
K-562 [8]	> 10
KCL-22 [3]	> 10
KG-1 [1]	> 10
KU-812	> 10
LAMA-84 [5]	> 10
ML-2 [4]	> 10
MOLM-13 [9]	> 10
MV4-11 [6]	> 10
Mono-Mac-6	> 10
NOMO-1	> 10
SHI-1 [10]	> 10
THP-1	> 10

Conditions	area under dose-response curve, co-treatment: AZD3965 100 nM	area under dose-response curve, co-treatment: DMSO vehicle	area under dose-response curve, co-treatment: GSK2194069 100 nM	area under dose-response curve, co-treatment: pictilisib 100 nM	cell viability, 1 nM [%]	cell viability, 10 nM [%]	cell viability, 100 nM [%]	cell viability, 1000 nM [%]	cell viability, 10000 nM [%]
BV-173 [22]	–	–	–	–	116	93.9	95.3	99.7	91.9
HEL [13]	–	–	–	–	107	112	101	105	103
HL-60 [18]	–	–	–	–	87.7	95	81.6	93	102
HL-60 [23]	< 0.0301	< 0.0301	< 0.0301	< 0.0301	–	–	–	–	–
K-562 [19]	–	–	–	–	112	97.3	120	100	102
KCL-22 [14]	–	–	–	–	89.3	105	77.6	102	105
KG-1 [12]	–	–	–	–	86.7	105	101	97.3	101
LAMA-84 [16]	–	–	–	–	92.2	111	98.1	94.3	91.3
ML-2 [15]	–	–	–	–	94.1	98.2	97.5	93.8	100
MOLM-13 [20]	–	–	–	–	100	93.3	96.5	100	86.1
MV4-11 [17]	–	–	–	–	111	98.4	102	97.8	99.4
SHI-1 [21]	–	–	–	–	92.5	93.8	113	102	98

cell viability [%], HL-60 [24]
Conditions	0.001 µM	0.01 µM	0.1 µM	1 µM	10 µM
co-treatment: AZD3965 100 nM	103	104	99.4	103.1	95.9
co-treatment: DMSO vehicle	98.1	104	101	99.5	103.2
co-treatment: GSK2194069 100 nM	103.4	107.5	94.7	98.3	99.6
co-treatment: pictilisib 100 nM	100	112	97.14	92.8	98.4

NS(=O)(=O)c1ccc(S(=O)(=O)Nc2cccc3c(Cl)c[nH]c23)cc1 [Indisulam]
Conditions	IC50 (cell viability) [µM]
BV-173 [11]	0.856
HEL [2]	7
HL-60 [7]	7.32
K-562 [8]	1.43
KCL-22 [3]	1.08
KG-1 [1]	0.932
KU-812	0.54
LAMA-84 [5]	0.918
ML-2 [4]	0.703
MOLM-13 [9]	0.619
MV4-11 [6]	0.128
Mono-Mac-6	0.796
NOMO-1	1.09
SHI-1 [10]	1.28
THP-1	> 10

Conditions	area under dose-response curve, co-treatment: AZD3965 100 nM	area under dose-response curve, co-treatment: DMSO vehicle	area under dose-response curve, co-treatment: GSK2194069 100 nM	area under dose-response curve, co-treatment: pictilisib 100 nM	cell viability, 1 nM [%]	cell viability, 10 nM [%]	cell viability, 100 nM [%]	cell viability, 1000 nM [%]	cell viability, 10000 nM [%]
BV-173 [22]	–	–	–	–	108	87.3	110	46.6	9.34
HEL [13]	–	–	–	–	103	98.1	95.8	95.9	34.7
HL-60 [18]	–	–	–	–	107	107	85.8	97.2	37.1
HL-60 [23]	< 0.0301	< 0.0301	< 0.0301	< 0.0301	–	–	–	–	–
K-562 [19]	–	–	–	–	113	101	89.2	65.4	36.7
KCL-22 [14]	–	–	–	–	102	104	87.4	58.6	19
KG-1 [12]	–	–	–	–	139	129	173	50.5	15.5
LAMA-84 [16]	–	–	–	–	94.3	89	111	55.2	21.9
ML-2 [15]	–	–	–	–	99.1	104	97.9	35.2	3.51
MOLM-13 [20]	–	–	–	–	122	102	97.8	32.6	7.24
MV4-11 [17]	–	–	–	–	99.4	84.3	56.2	0.62	0.0378
SHI-1 [21]	–	–	–	–	96.8	101	97.4	65.2	26.8

cell viability [%], HL-60 [24]
Conditions	0.001 µM	0.01 µM	0.1 µM	1 µM	10 µM
co-treatment: AZD3965 100 nM	97.4	97.92	98.8	110	89.8
co-treatment: DMSO vehicle	96.4	95	101	104	92.2
co-treatment: GSK2194069 100 nM	101	101	100	105	90.9
co-treatment: pictilisib 100 nM	110	95.2	104	112.7	77.3

COc1ccc2c(c1)c(CC(=O)O)c(C)n2C(=O)c1ccc(Cl)cc1 [Indomethacine]
Conditions	IC50 (cell viability) [µM]
BV-173 [11]	> 10
HEL [2]	> 10
HL-60 [7]	> 10
K-562 [8]	> 10
KCL-22 [3]	> 10
KG-1 [1]	> 10
KU-812	> 10
LAMA-84 [5]	> 10
ML-2 [4]	> 10
MOLM-13 [9]	> 10
MV4-11 [6]	> 10
Mono-Mac-6	> 10
NOMO-1	> 10
SHI-1 [10]	> 10
THP-1	> 10

Conditions	area under dose-response curve, co-treatment: AZD3965 100 nM	area under dose-response curve, co-treatment: DMSO vehicle	area under dose-response curve, co-treatment: GSK2194069 100 nM	area under dose-response curve, co-treatment: pictilisib 100 nM	cell viability, 1 nM [%]	cell viability, 10 nM [%]	cell viability, 100 nM [%]	cell viability, 1000 nM [%]	cell viability, 10000 nM [%]
BV-173 [22]	–	–	–	–	89.5	94.1	105	112	81.8
HEL [13]	–	–	–	–	109	92.8	94.3	92.7	95.5
HL-60 [18]	–	–	–	–	124	104	100	84.6	147
HL-60 [23]	< 0.0301	< 0.0301	< 0.0301	< 0.0301	–	–	–	–	–
K-562 [19]	–	–	–	–	95.2	101	96	103	90.4
KCL-22 [14]	–	–	–	–	113	84	96	110	102
KG-1 [12]	–	–	–	–	110	106	98	99.3	97.6
LAMA-84 [16]	–	–	–	–	86.4	98.5	92.9	107	91.5
ML-2 [15]	–	–	–	–	108	98.3	98.4	90.4	94.1
MOLM-13 [20]	–	–	–	–	105	93.7	98.2	108	94.5
MV4-11 [17]	–	–	–	–	86.9	82.1	102	95.3	92.2
SHI-1 [21]	–	–	–	–	120	95.3	99	94.2	94.3

cell viability [%], HL-60 [24]
Conditions	0.001 µM	0.01 µM	0.1 µM	1 µM	10 µM
co-treatment: AZD3965 100 nM	94.5	76.1	100	103	91.6
co-treatment: DMSO vehicle	93.22	91	97.19	101	100
co-treatment: GSK2194069 100 nM	88	95.9	97.61	99.8	89.1
co-treatment: pictilisib 100 nM	90.7	87.2	93.2	97.1	88.4
